The text below walks through data of patent US6509003B2, “Reagents for the determination of cerebral regional acetylcholinesterase activity” (Daiichi Pure Chemicals Co., Ltd., priority 1997, dated 2003).

The target of series [1] is T1, AchE (Rattus norvegicus, UniProt P37136). Description: hydrolysis of 14C-labeled compound in 20% rat brain cortex homogenate, radio TLC, with/without BW284c51. The conditions noted are these: for specificity for AchE in hydrolysis reaction: 14C-labeled compound, from inhibition test with BW284c51. Here is the method: Rat brain cortex was processed into a 20% (w/v) homogenate by use of 0.9% NaCl-10 mM phosphate buffer (pH 7.4).

Series [2] has as its target T2, central AchE (Rattus norvegicus, UniProt P37136).
T2 sequence (P37136 32-614): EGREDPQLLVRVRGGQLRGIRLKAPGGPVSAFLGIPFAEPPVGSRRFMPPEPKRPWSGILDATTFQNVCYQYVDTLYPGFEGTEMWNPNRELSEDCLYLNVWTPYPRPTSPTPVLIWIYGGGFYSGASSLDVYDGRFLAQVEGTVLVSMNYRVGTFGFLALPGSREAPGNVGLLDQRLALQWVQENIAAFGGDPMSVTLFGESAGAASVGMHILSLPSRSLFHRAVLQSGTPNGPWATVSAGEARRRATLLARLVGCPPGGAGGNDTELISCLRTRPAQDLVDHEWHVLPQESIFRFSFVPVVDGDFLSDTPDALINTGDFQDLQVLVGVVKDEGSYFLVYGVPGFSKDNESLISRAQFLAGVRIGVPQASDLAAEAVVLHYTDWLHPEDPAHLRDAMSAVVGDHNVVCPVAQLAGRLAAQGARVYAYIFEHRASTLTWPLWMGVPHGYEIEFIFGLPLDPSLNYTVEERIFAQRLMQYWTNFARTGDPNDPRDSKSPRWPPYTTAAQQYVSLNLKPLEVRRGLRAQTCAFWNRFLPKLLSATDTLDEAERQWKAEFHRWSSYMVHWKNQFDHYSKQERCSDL
In words: radioactivity distribution in the rat brain by autoradiography after intravenous administration. It counts as in vivo. Details: from tissue; host or cells: brain of living male rats (in vivo). The conditions noted are these: male white rat, i.v.; for migration to the brain: 14C-labeled, autoradiography.

Series [3] concerns the target T1, AchE. Format: biochemical. Details: Cerebral cortical tissues were obtained from rats, weighed and homogenized; from tissue; host or cells: rat cerebral cortex homogenate. Here is the method: Cerebral cortical tissues were obtained from rats, weighed and homogenized (90 mg tissue/ml) in 0.1 M phosphate buffer, pH7.4. […]
In series [4] the target is T2, central AchE. In words: radioactivity distribution in the rat brain by dissection method after intravenous administration. It counts as in vivo. Details: from tissue; host or cells: brain of living male rats (in vivo). The conditions noted are these: male wistar rats, i.v. Here is the method:
After a geometrical isomer (50b) of compound No. 50 obtained in Example 8 (1) had been intravenously administered to groups of male wistar rats, radioactivity distribution in the rat brain was assayed by dissection method.

Series [5] concerns the target T2, central AchE. In words: radioactivity distribution in the rat brain by quantitative autoradiography after intravenous administration. The conditions noted are these: 14C-labeled 13b, male white rat, i.v.
Setting [6] is: fifteen minutes or more after administration.
The mark [7] stands for this setting: immediately after administration.
The mark [8] stands for this setting: thirty minutes after administration.
Setting [9] is: thirty minutes or more after administration.

Where two headings read alike, the source gives them in different places.

In the case of `CC(=O)OC1CCN(C)CC1C(O)CC/C=C/I` (single isomer, unassigned) [13a], the “specificity for AchE in hydrolysis reaction” value in series [1] (rat brain cortex homogenate) was 80.4%.
In the case of `O.[14CH3]N1CCC(C(O)/C=C/I)C(O)C1` (stereo not drawn) [compound No. 46, N-^14C-methyl-3-hydroxy-4-(l-hydroxy-3-iodo-2-propenyl)piperidine], the “migration to the brain” value in series [2] was “hardly migrated to the brain”.
With `COCOC(CC/C=C/[123I])C1CN(C)CCC1OC(C)=O` (single isomer, unassigned) [50b], the “specificity for AchE” value in series [3] (123I-labeled compound, rat cerebral cortical homogenate, 37°C, from inhibition by BW284c51) was determined as 88.6%. In series [4] (setting [6]), the “accumulation of radioactivity, cerebellum” value (“accumulation … cerebellum” below) is “accumulation of radioactivity was low” and the “accumulation of radioactivity, striatum” value is “high accumulation of radioactivity”. Further, in series [4] (setting [7]), the “radioactivity distribution, brain cortex” value was “high” and the “radioactivity distribution, striatum” value was “low”.
With `CC(=O)OC1CN([14CH3])CCC1C(O)/C=C/I` (stereo not shown) [compound No. 47, N-^14C-methyl-3-acetoxy-4-(1-hydroxy-3-iodo-2-propenyl)piperidine], in series [2], the “migration to the brain” value is “commonly migrated to the brain”. Moreover, in series [2] (5 minutes after administration), the “radioactivity distribution, brain cortex” value is “high”; the “radioactivity distribution, cerebellum” value was “low”; the “radioactivity distribution, corpus striatum” value is reported as “somewhat high”. In series [2] (setting [8]), the “accumulation … cerebellum” value is “low accumulation of radioactivity” and the “accumulation of radioactivity, corpus striatum” value is “high accumulation of radioactivity”.
As for `C=CC[N+](C)(C)c1ccc(CCC(=O)CCc2ccc([N+](C)(C)CC=C)cc2)cc1.[Br-].[Br-]` [BW284c51, reference compound], the “hydrolysis on addition of BW284c51” value in series [3] (hydrolysis of 123I-labeled 50b in rat cerebral cortical homogenate) and in series [1] (hydrolysis of 14C-labeled compound No. 13 in rat brain cortex homogenate) was “considerably inhibited” each time.
For the compound `CC(=O)OC1CCN(C)CC1C(O)CC/C=C/I` (single isomer, unassigned) [13b], in series [1] (rat brain cortex homogenate), the “specificity for AchE in hydrolysis reaction” value was determined as 91.8%; the “reactivity and specificity for AchE (in words)” value is “excellent reactivity and specificity for AchE”. The same compound displayed a half-life in series [1] (rat, 20% (w/v) brain cortex homogenate, pH 7.4, half-life of hydrolysis, 14C-labeled (N-methyl) compound, rat brain cortex homogenate, 37°C) of about 5 min. Further, in series [5] (setting [7]), the “radioactivity distribution, brain cortex” value is listed as “high” and the “radioactivity distribution, corpus striatum” value is “low”. Further, in series [5] (setting [9]), the “accumulation … cerebellum” value was “low accumulation of radioactivity” and the “accumulation of radioactivity, striatum” value is listed as “high accumulation of radioactivity”.

The half-life is the time in which the quantity being followed falls by half.
